{"source": "patent US11246873B2", "about": "“Directed differentiation of oligodendrocyte precursor cells to a myelinating cell fate” (The Scripps Research Institute, priority 2011, dated 2022)", "key": {"[1]": {"tested_on": "C57BL/6 mice fed cuprizone", "details": "for remyelination / myelin staining in the corpus callosum versus vehicle, week 2: 2 weeks after cuprizone withdrawal", "excerpt": "Data is represented in terms of threshold bins on the grey scale (0-50) as described. Error bars represent standard deviations of at least 6 corpus callosum regions.\n(B) Images were converted to a 256 shade grey scale. (C) The 256 shades of grey were divided into 5 bins of 50 shades each. Number of objects in the corpus callosum region in each bin were counted using Image-Pro plus.\nBy administering drugs at the time when a cuprizone-free diet is reintroduced, the efficacy of promyelinating agents can be examined by evaluating the relative kinetics of OPC dependent remyelination (T. Skripuletz et al., Am J Pathol, 172, 1053 (2008)). […] Drug or vehicle treated mice were sacrificed in groups of 5 weekly for 5 weeks, following drug treatment, and remyelination was quantitatively evaluated by staining the corpus callosum regions of harvested brains with LFB (FIG. 9A, B)."}, "[2]": {"tested_on": "dopamine D2 and D3 receptor", "format": "cell-based, rat", "text": "Error bars indicate standard deviations of 3 replicate measurements.\nOPCs express mAChRs, predominantly subtypes M1, M3, and M5 (F. Ragheb et al., J Neurochem, 77, 1396 (2001)). […] Activation of M1 and M3 mAChRs is coupled to downstream signal transduction events through phospholipase C, which results in increased intracellular calcium concentrations (F. Ragheb et al., J Neurochem, 77, 1396 (2001)) (FIG. 23C). M2 and M4 mAChR activation inhibits adenylatecyclase, leading to decreased intracellular cAMP levels (C. C. Felder, FASEB J, 9, 619 (1995); M. Lopez-Ilasaca et al., Science, 275, 394 (1997)). […] Acetylcholine is a known regulator of OPC proliferation and, as such, muscarinic receptor subtypes represent a reasonable class of therapeutic targets for the modulation of OPC proliferation and differentiation (F. De Angelis et al., Dev Neurobiol, (2011))."}, "spinal cord of EAE mice": {"tested_on": "spinal cord of EAE mice", "experiment": "Histology of spinal cord sections from EAE mice (LFB, H&E, GST-π, NG2)", "format": "in vivo, mouse", "details": "for LFB (myelin) staining in areas infiltrated by lymphocytes / lymphocyte / immune cell infiltration (H&E): 10 mg/kg, relapse phase", "text": "FIG. 26. […] Spinal cords were isolated from mice representative of the average group scores during the relapse phase of EAE, sectioned and stained with Luxol Fast Blue and H&E (left panel) and Luxol Fast Blue only (right panel). Arrows point to regions of lymphocyte infiltration."}, "caspase 3": {"tested_on": "caspase 3", "experiment": "Western blot of caspase 3 and cleaved caspase 3 in differentiated OPCs", "details": "benztropine 1.5 uM, thyroid hormone 1 uM, 6 days", "text": "FIG. 32. Western blot analysis of cleaved caspase activity in differentiated OPCs. […] Total protein was isolated and analyzed by Western blot using a specific antibody for the expression of caspase 3 and cleaved caspase 3."}, "OPCs": {"tested_on": "OPCs", "experiment": "Western blot of MBP and MOG in compound treated OPCs", "format": "cell-based, rat", "details": "OPCs treated 6 days", "text": "FIG. 2A-C. Neurotransmitter receptor modulating agents induce the differentiation of OPCs to a myelinating oligodendrocyte cell fate. (A) Western blot analysis of OPCs treated with compounds at EC90 concentrations for 6 days. Total protein was isolated from cell pellets and probed for myelin basic protein (MBP) and myelin oligodendrocyte glycoprotein (MOG) using specific antibodies. (B-C) Quantitative RT-PCR (qRT-PCR) analysis of OPCs treated with compounds at EC90 concentrations for 6 days. Total RNA was isolated from cell pellets and reverse transcribed. MBP and MOG expression was quantified using specific probes and Taqman-based qRT-PCR. Expression was normalized to the internal controls β-actin and GAPDH. Fold change in gene expression over DMSO treated control cells is plotted for MBP (B) and MOG (C).\nFIG. 13. […] After 6 days in culture, cells were analyzed for MBP and MOG expression by Western blot."}, "[3]": {"experiment": "T-cell dependent and independent B-cell responses to TNP-KLH, TNP-LPS, TNP-Ficoll (serum IgG, IgM ELISA)", "format": "in vivo, mouse", "details": "10 mg/kg", "experimental": "Serum was isolated at various time points and IgG and IgM levels were measured by ELISA. […] Error bars represent standard deviations from 3 replicate ELISAs performed on samples from 5 mice in each treatment group.\n(§1) The primary immunological processes involved in MS and EAE are T-cell mediated and the primary treatment paradigms are based on immunomodulatory drugs (T. Kopadze et al., Arch Neurol, 63, 1572 (2006); J. M. Greer et al., J Immunol, 180, 6402 (2007), M. P. Pender and J. M. Greer, curr Allergy Asthma Rep, 7, 285 (2007))."}, "[4]": {"tested_on": "total splenocytes stimulated with CD3", "experiment": "T-cell activation (CD69, CD25) and proliferation (CFSE) in vitro", "format": "cell-based, mouse", "details": "versus DMSO", "text": "(A-F) Total splenocytes were isolated from mice and stimulated with CD3 and analyzed by flow cytometry for expression of T-cell activation markers CD69 and CD25 and T-cell proliferation using CFSE. (A) Unstimulated cells. (B) DMSO treated cells. […] The numbers represent percentage gated populations positive for the given marker.\nas §1"}, "[5]": {"tested_on": "splenocytes of normal mice", "experiment": "Immune cell populations and cytokine production in splenocytes of normal mice", "format": "in vivo, mouse", "details": "10 mg/kg i.p., 14 days; for cytokine production (IL2, IL10, TNF, IFN-γ producing CD4+ T-cells) / number of B cells: 10 mg/kg", "text": "Total splenocytes were isolated from the mice, stimulated with PMA and ionomycin and analyzed for various populations of immune cells and cytokine secretion after 48 hrs. Protein transport was blocked in cells used for cytokine analysis using monoeiosin. […] Error bars indicate standard deviation of the mean within each group of 5 mice.\nas §1"}, "[6]": {"details": "spinal cord sections of EAE mice"}}, "note": "Entries after “also recorded” stand apart in the source; their conditions may differ. Read-outs that look alike come from different tables or passages of the source.", "data": [{"compound": "CN1[C@@H]2CC[C@H]1C[C@@H](OC(c1ccccc1)c1ccccc1)C2", "note": "[benztropine]", "values": [{"measurement": "remyelination / myelin staining in the corpus callosum versus vehicle, week 2", "setting": "[1]; 10 mg/kg i.p.", "value": "significant increase in myelin staining in the corpus callosum"}, {"measurement": "remyelination / myelin staining in the corpus callosum versus vehicle, week 2", "setting": "[1]; 10 mg/kg i.p., listed as benzatropine", "value": "increased remyelination"}, {"measurement": "increase in myelin staining in the corpus callosum versus vehicle", "setting": "[1]; 10 mg/kg i.p., 2 weeks after drug treatment", "value": "~2", "unit": "fold"}, {"measurement": "myelin staining versus vehicle at later time points", "setting": "[1]; 10 mg/kg i.p., up to 5 weeks", "value": "significant differences were not observed"}, {"measurement": "toxicity to mature oligodendrocytes", "setting": "[1]; mouse, in vivo", "value": "not toxic to mature oligodendrocytes"}, {"measurement": "effect of quinpirole or haloperidol on benztropine induced differentiation / dopamine D2 and D3 receptor signaling", "setting": "[2]", "value": "neither the dopamine receptor antagonist haloperidol, nor the dopamine receptor agonist quinpirole affected; also recorded: no effect"}, {"measurement": "LFB (myelin) staining in areas infiltrated by lymphocytes", "setting": "spinal cord of EAE mice", "value": "a large number of immune cell infiltrated areas stained positive for LFB"}, {"measurement": "lymphocyte / immune cell infiltration (H&E)", "setting": "spinal cord of EAE mice", "value": "significant infiltration by H&E reactive immune cells"}, {"measurement": "LFB (myelin) staining in areas infiltrated by lymphocytes", "setting": "spinal cord of EAE mice; listed as Benztropine", "value": "significantly increased LFB staining"}, {"measurement": "lymphocyte / immune cell infiltration (H&E)", "setting": "spinal cord of EAE mice; listed as Benztropine", "value": "does not block lymphocyte infiltration"}, {"measurement": "number of GST-π positive mature oligodendrocytes", "setting": "spinal cord of EAE mice; spinal cord of EAE mice, vehicle ~500", "value": 1100, "unit": "per field"}, {"measurement": "GST-π positive cells versus vehicle", "setting": "spinal cord of EAE mice; [6]", "value": "increased GST-π positive cells"}, {"measurement": "number of NG2 positive cells versus vehicle", "setting": "spinal cord of EAE mice; [6]", "value": "did not differ significantly; also recorded: no change"}, {"measurement": "expression of cleaved caspase 3", "setting": "caspase 3", "value": "No expression of cleaved caspase 3 was detected"}, {"measurement": "MBP and MOG expression (Western blot)", "setting": "OPCs", "value": "positive"}, {"measurement": "MBP and MOG expression (Western blot)", "setting": "OPCs; listed as Benztropine", "value": "induces differentiation of OPCs to mature oligodendrocytes"}, {"measurement": "TNP-Ficoll induced B-cell responses (serum IgM and IgG)", "setting": "[3]", "value": "no effect on IgG and IgM production"}, {"measurement": "TNP-KLH induced B-cell responses (serum IgM and IgG)", "setting": "[3]", "value": "no effect on IgG and IgM production"}, {"measurement": "TNP-LPS induced B-cell responses (serum IgM and IgG)", "setting": "[3]", "value": "no effect on IgG and IgM production"}, {"measurement": "T-cell activation (CD69, CD25)", "setting": "[4]", "value": "no effect"}, {"measurement": "T-cell proliferation (CFSE)", "setting": "[4]", "value": "no effect"}, {"measurement": "number of total splenocytes, CD4+, CD8+, CD4+/CD44Hi and CD8+/CD44Hi T-cells", "setting": "[5]", "value": "no effect"}, {"measurement": "cytokine production (IL2, IL10, TNF, IFN-γ producing CD4+ T-cells)", "setting": "[5]", "value": "no effect on cytokine production"}, {"measurement": "number of B cells", "setting": "[5]", "value": "minor but significant decrease"}, {"measurement": "cytokine production (IL2, IL10, TNF, IFN-γ producing CD4+ T-cells)", "setting": "[5]; listed as Benztropine", "value": "no effect"}, {"measurement": "number of B cells", "setting": "[5]; listed as Benztropine", "value": "no effect"}]}]}
